In US8247211B2, “Glycopeptide antibiotics” (American Cyanamid Company, priority 2001, dated 2012):
Converted amounts (≈) assume the structure as drawn.

Columns and labels:
Test in all cases: In vitro antibacterial evaluation: minimum inhibitory concentration (MIC), broth dilution method
Type in all cases: cell-based
Escherichia coli = conditions: 18 hours at 35° C.
Outline: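 Susceptibility determined by NCCLS-recommended broth dilution (M7-A2), Muller-Hinton II […]. Concentration span 64-0.06 μg/mL, inoculum 5×10^5 CFU/mL. Isolates include strains resistant to methicillin, penicillin and/or vancomycin.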

Enterococcus sp. = conditions: 18 hours at 35° C.
Outline: (§1)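 MIC by broth dilution in Mueller-Hinton II medium following NCCLS M7-A2. Inoculum was 5×10^5 CFU/mL and antibiotic was tested over 64-0.06 μg/mL. Gram-positive panel included clinical isolates resistant to methicillin, penicillin and/or vancomycin.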

Streptococcus sp. = conditions: 18 hours at 35° C.
Outline: as §1

Staphylococcus sp. = tested on: Staphylococcus sp.
Outline: as §1

[1] = broth dilution, inoculum 5×10^5 CFU/mL

- MIC Escherichia coli (ATCC 25922) (Escherichia coli; Escherichia coli (ATCC 25922)): 32 µg/mL (≈ 22.4 µM)
- MIC Escherichia coli (GC 4559) (Escherichia coli; Escherichia coli (GC 4559)): 32 µg/mL (≈ 22.4 µM)
- MIC Escherichia coli (GC 4560) (Escherichia coli; Escherichia coli (GC 4560)): 1 µg/mL (≈ 0.7 µM)
- MIC Enterococcus avium (GC 4558) (Enterococcus sp.; Enterococcus avium (GC 4558)): 0.5 µg/mL (≈ 0.35 µM)
- MIC Enterococcus faecalis (ATCC 29212) (Enterococcus sp.; Enterococcus faecalis (ATCC 29212)): 0.5 µg/mL (≈ 0.35 µM)
- MIC Enterococcus faecalis (GC 2242) (Enterococcus sp.; Enterococcus faecalis (GC 2242)): 1 µg/mL (≈ 0.7 µM)
- MIC Enterococcus faecalis (GC 2691) (Enterococcus sp.; Enterococcus faecalis (GC 2691)): 1 µg/mL (≈ 0.7 µM)
- MIC Enterococcus faecalis (GC 3059) (Enterococcus sp.; Enterococcus faecalis (GC 3059)): 1 µg/mL (≈ 0.7 µM)
- MIC Enterococcus faecalis (GC 4552) (Enterococcus sp.; Enterococcus faecalis (GC 4552)): 1 µg/mL (≈ 0.7 µM)
- MIC Enterococcus faecalis (GC 4553) (Enterococcus sp.; Enterococcus faecalis (GC 4553)): 0.5 µg/mL (≈ 0.35 µM)
- MIC Enterococcus faecalis (GC 4554) (Enterococcus sp.; Enterococcus faecalis (GC 4554)): 1 µg/mL (≈ 0.7 µM)
- MIC Enterococcus faecalis (GC 6189) (Enterococcus sp.; Enterococcus faecalis (GC 6189)): 1 µg/mL (≈ 0.7 µM)
- MIC Enterococcus faecium (GC 2243) (Enterococcus sp.; Enterococcus faecium (GC 2243)): 0.5 µg/mL (≈ 0.35 µM)
- MIC Enterococcus faecium (GC 4556) (Enterococcus sp.; Enterococcus faecium (GC 4556)): 1 µg/mL (≈ 0.7 µM)
- MIC Enterococcus faecium (GC 4557) (Enterococcus sp.; Enterococcus faecium (GC 4557)): 0.5 µg/mL (≈ 0.35 µM)
- MIC Enterococcus avium (GC 4558) (Enterococcus sp.; [1]): 0.5 µg/mL (≈ 0.35 µM)
- MIC Enterococcus faecalis (ATCC 29212) (Enterococcus sp.; [1]): 0.5 µg/mL (≈ 0.35 µM)
- MIC Enterococcus faecalis (GC 2242) (Enterococcus sp.; [1]): 1 µg/mL (≈ 0.7 µM)
- MIC Enterococcus faecalis (GC 2691) (Enterococcus sp.; [1]): 1 µg/mL (≈ 0.7 µM)
- MIC Enterococcus faecalis (GC 3059) (Enterococcus sp.; [1]): 1 µg/mL (≈ 0.7 µM)
- MIC Enterococcus faecalis (GC 4552) (Enterococcus sp.; [1]): 1 µg/mL (≈ 0.7 µM)
- MIC Enterococcus faecalis (GC 4553) (Enterococcus sp.; [1]): 0.5 µg/mL (≈ 0.35 µM)
- MIC Enterococcus faecalis (GC 4554) (Enterococcus sp.; [1]): 1 µg/mL (≈ 0.7 µM)
- MIC Enterococcus faecalis (GC 6189) (Enterococcus sp.; [1]): 1 µg/mL (≈ 0.7 µM)
- MIC Enterococcus faecium (GC 2243) (Enterococcus sp.; [1]): 0.5 µg/mL (≈ 0.35 µM)
- MIC Enterococcus faecium (GC 4556) (Enterococcus sp.; [1]): 1 µg/mL (≈ 0.7 µM)
- MIC Enterococcus faecium (GC 4557) (Enterococcus sp.; [1]): 0.5 µg/mL (≈ 0.35 µM)
- MIC Streptococcus agalactiae (GC 4564) (Streptococcus sp.; Streptococcus agalactiae (GC 4564)): <0.12 µg/mL
- MIC Streptococcus pneumoniae (ATCC 6301) (Streptococcus sp.; Streptococcus pneumoniae (ATCC 6301)): <0.12 µg/mL
- MIC Streptococcus pneumoniae (GC 1894) (Streptococcus sp.; Streptococcus pneumoniae (GC 1894)): <0.12 µg/mL
- MIC Streptococcus pneumoniae (GC 4565) (Streptococcus sp.; Streptococcus pneumoniae (GC 4565)): <0.12 µg/mL
- MIC Streptococcus pyogenes (GC 4563) (Streptococcus sp.; Streptococcus pyogenes (GC 4563)): <0.12 µg/mL
- MIC Streptococcus agalactiae (GC 4564) (Streptococcus sp.; [1]): <0.12 µg/mL
- MIC Streptococcus pneumoniae (ATCC 6301) (Streptococcus sp.; [1]): <0.12 µg/mL
- MIC Streptococcus pneumoniae (GC 1894) (Streptococcus sp.; [1]): <0.12 µg/mL
- MIC Streptococcus pneumoniae (GC 4565) (Streptococcus sp.; [1]): <0.12 µg/mL
- MIC Streptococcus pyogenes (GC 4563) (Streptococcus sp.; [1]): <0.12 µg/mL
- MIC Staphylococcus aureus (ATCC 29213) (Staphylococcus sp.; strain ATCC 29213): 0.5 µg/mL (≈ 0.35 µM)
- MIC Staphylococcus aureus (GC 1131) (Staphylococcus sp.; strain GC 1131): 0.5 µg/mL (≈ 0.35 µM)
- MIC Staphylococcus aureus (GC 3051) (Staphylococcus sp.; strain GC 3051): 0.5 µg/mL (≈ 0.35 µM)
- MIC Staphylococcus aureus (GC 3053) (Staphylococcus sp.; strain GC 3053): 1 µg/mL (≈ 0.7 µM)
- MIC Staphylococcus aureus (GC 4541) (Staphylococcus sp.; strain GC 4541): 0.5 µg/mL (≈ 0.35 µM)
- MIC Staphylococcus aureus (GC 4542) (Staphylococcus sp.; strain GC 4542): 0.5 µg/mL (≈ 0.35 µM)
- MIC Staphylococcus aureus-SMITH (GC 4543) (Staphylococcus sp.; strain GC 4543): <0.12 µg/mL
- MIC Staphylococcus aureus (GC 4544) (Staphylococcus sp.; strain GC 4544): 0.5 µg/mL (≈ 0.35 µM)
- MIC Staphylococcus aureus (GC 4545) (Staphylococcus sp.; strain GC 4545): 1 µg/mL (≈ 0.7 µM)
- MIC Coagulase Negative Staphylococcus (GC 4547) (Staphylococcus sp.; strain GC 4547): 0.5 µg/mL (≈ 0.35 µM)
- MIC Coagulase Negative Staphylococcus (GC 4548) (Staphylococcus sp.; strain GC 4548): 0.5 µg/mL (≈ 0.35 µM)
- MIC Coagulase Negative Staphylococcus (GC 4549) (Staphylococcus sp.; strain GC 4549): <0.12 µg/mL
- MIC Coagulase Negative Staphylococcus (GC 4551) (Staphylococcus sp.; strain GC 4551): 0.5 µg/mL (≈ 0.35 µM)
SMILES: CC(c1ccccc1)C1NC(=O)CNC(=O)C(CO)NC(=O)C(C(O)C2CNC(=N)N2C2OC(CO)C(O)C(O)C2O)NC(=O)C(C(O)C2CNC(=N)N2)NC(=O)C(Cc2ccc(OC3OC(CO)C(OC4OC5COC6(CC7CCC6(C)C7(C)C)OC5C(O)C4O)C(O)C3O)cc2)NC1=O (stereo not drawn) [Example 215, Cyclo[glycyl-β-methylphenylalanyl-O-[4-O-[4,6-O-(1,7,7-trimethylbicyclo[2.2.1]hept-2-ylidene)hexopyranosyl]hexopyranosyl]tyrosyl-3-(2-iminoimidazolidin-4-yl)seryl-3-(3-hexopyranosyl-2-iminoimidazolidin-4-yl)serylseryl]]
- MIC Staphylococcus haemolyticus (GC 4546) (Staphylococcus sp.; strain GC 4546): 0.5 µg/mL (≈ 0.35 µM)
